# Earlier results as cited in US20240397917A1, “ANIMAL PRODUCTION METHOD” (DSM IP ASSETS B.V., priority 2021, published 2024).
# Key:
# [1] = in vivo
# [2] = per 1% increase in plasma levels of 25-OH-D3; average of broiler trials
structure (smiles),measurement,setting,value
"C=C1CC[C@H](O)C/C1=C/C=C1\CCC[C@]2(C)[C@@H]([C@H](C)CCCC(C)(C)O)CC[C@@H]12 [HyD, calcidiol]",absorption,at the same level of inclusion in feed,74.9%
same,absorption in the intestine in comparison to Vitamin D3,when fed,more efficient absorption
same,excretion in comparison to Vitamin D3,when fed,less excretion
same,retention in comparison to Vitamin D3,when fed,greater retention
same,dose without toxic effects,[1],up to 10 times its recommended dose
same,improvement in ADG,[2],0.029%
same,improvement in bone strength,[2],0.173%
same,improvement in breast meat yield,[2],0.008%
same,improvement in gait score,[2],0.296%
